Entries after “also recorded” stand apart in the source; their conditions may differ.
Tests used:
Type in all cases: in vivo, mouse
[1] = tested on: thyroid hormone receptor isoform specific action (TRβ dominant liver, TRα dominant heart; Luciferase reporter); assay: Testing TR isoform specific agonists: Luciferase activity in liver and heart of line #4 with decreased endogenous thyroid hormone; conditions: i.p. 1.53 nM/g BW, after 24 hours
Experimental: FIG. 7. The transgenic mouse model is capable to detect thyroid hormone receptor isoform specific T3 actions. […] Mean±SEM (n=5) ** p<0.01 by t test.
We decreased the endogenous thyroid hormone levels in line #4 by administering methimazole and perchlorate (0.1% methimazole, 0.5% perchlorate) in the drinking water followed by the i.p. injection of 1.53 nM/g BW of GC-24, a TRβ specific agonist (35). Luciferase activity assay was performed using our established protocol (34) modified for tissue samples, that included treatment of mouse tissue with liquid nitrogen, followed by sonication. In vivo Luciferase imaging has been performed on an IVIS Lumina II In vivo Imaging System (PerkinElmer Waltham, Mass., USA) according to the instructions of the manufacturer.

[2] = tested on: thyroid hormone (TH) action (3xTRE-TK driven Luciferase reporter); assay: Luciferase activity (luciferase assay) in tissues of THAIM line #4 mice; conditions: for Fold (mean ± SEM), induced/basal Luciferase activity / induced Luciferase activity: line #4, T4 5 ug/mouse/day for 3 days i.p.
Experimental: (§1) (A, B, C) T4 treatment (5 ug/mouse/day for 3 days; i.p.) in mouse lines #4, 18, and 23. […] All experiments were performed on homozygote males.
(§2) Unilateral denervation of sympathetic nerves innervating the iBAT has been performed as described in (32). Measurement of the activity of type 2 deiodinase was performed according to the American Thyroid Association Guide to investigating thyroid hormone economy and action in rodent and cell models (33)). THAIM #4 mice underwent unilateral denervation of sympathetic nerves innervating the BAT. Luciferase activity assay was performed using our established protocol (34) modified for tissue samples.

[3] = tested on: thyroid hormone (TH) action (3xTRE-TK driven Luciferase reporter); assay: Luciferase activity (luciferase assay) in tissues of THAIM line #23 mice; conditions: for Fold (mean ± SEM), induced/basal Luciferase activity / induced Luciferase activity: line #23, T4 5 ug/mouse/day for 3 days i.p.
Experimental: as §1, §2

[4] = tested on: thyroid hormone (TH) action (3xTRE-TK driven Luciferase reporter); assay: Luciferase activity (luciferase assay) in tissues of THAIM line #18 mice
Experimental: Characterization of the #4, 18 and 23 lines identified thyroid hormone (5 ug of T4/day/mouse for 3 days) induced induction of Luciferase expression in various tissues of homozygote males.
Basal and thyroid hormone induced values and fold changes (induced/basal) of Luciferase activities in tissues of sacrificed animals (Mean±SEM, n=4). P values oft test (basal vs. induced) are provided, * represents statistical significance. (A, B, C) T4 treatment (5 ug/mouse/day for 3 days; i.p.) in mouse lines #4, 18, and 23. Basal activity levels in #18 are higher than other two lines. […] All experiments were performed on homozygote males.
as §2, with “(FIG. 4). Unilateral” for “Unilateral”, “samples. […] This increase was abolished by denervation but TH action was maintained at room temperature (intact vs. denervated). (A). In the denervated samples, this was paralleled by abolished response of D2 activity to cold and maintenance of the basal D2 activity in the denervated lobe at room temperature (B).” for “samples.”

[5] = Mandibular salivatory gland (MSG)
[6] = line #18, Cerebellum, T4 5 ug/mouse/day for 3 days i.p.
[7] = line #18, Cortex, T4 5 ug/mouse/day for 3 days i.p.
[8] = line #18, HC, T4 5 ug/mouse/day for 3 days i.p.
[9] = line #18, HT, T4 5 ug/mouse/day for 3 days i.p.
[10] = line #18, MBH, T4 5 ug/mouse/day for 3 days i.p.
[11] = line #18, Pit, T4 5 ug/mouse/day for 3 days i.p.

SMILES: Cc1cc(OCC(=O)O)cc(C)c1Cc1ccc(O)c(Cc2ccccc2)c1 [GC-24]
- Luciferase activity in heart ([1]; TRα isoform dominant heart): did not change; also recorded: no significant change
- Luciferase activity in liver ([1]; TRβ isoform dominant liver): significantly increased

SMILES: N[C@@H](Cc1cc(I)c(Oc2cc(I)c(O)c(I)c2)c(I)c1)C(=O)O [T4, thyroxine]
- Fold (mean ± SEM), induced/basal Luciferase activity ([2]; Bone): 2.2 ± 0.18 Fold
- induced Luciferase activity ([2]; Bone): 0.066 RLU/mg protein
- Fold (mean ± SEM), induced/basal Luciferase activity ([2]; Cerebellum (CER)): 2.3 ± 0.41 Fold
- induced Luciferase activity ([2]; Cerebellum (CER)): 2.162 RLU/mg protein
- Fold (mean ± SEM), induced/basal Luciferase activity ([2]; Cortex (CTX)): 1.9 ± 0.30 Fold
- induced Luciferase activity ([2]; Cortex (CTX)): 0.359 RLU/mg protein
- Fold (mean ± SEM), induced/basal Luciferase activity ([2]; Heart): 8.5 ± 0.31 Fold
- induced Luciferase activity ([2]; Heart): 0.030 RLU/mg protein
- Fold (mean ± SEM), induced/basal Luciferase activity ([2]; Hippocampus (HC)): 1.9 ± 0.03 Fold
- induced Luciferase activity ([2]; Hippocampus (HC)): 0.116 RLU/mg protein
- Fold (mean ± SEM), induced/basal Luciferase activity ([2]; Hypothalamus (HT)): 1.3 ± 0.08 Fold
- induced Luciferase activity ([2]; Hypothalamus (HT)): 0.488 RLU/mg protein
- Fold (mean ± SEM), induced/basal Luciferase activity ([2]; Intestine): 2.1 ± 0.30 Fold
- induced Luciferase activity ([2]; Intestine): 9.480 RLU/mg protein
- Fold (mean ± SEM), induced/basal Luciferase activity ([2]; Liver): 1.9 ± 0.14 Fold
- induced Luciferase activity ([2]; Liver): 0.005 RLU/mg protein
- Fold (mean ± SEM), induced/basal Luciferase activity [2, 5]: 7.6 ± 2.60 Fold
- induced Luciferase activity [2, 5]: 0.399 RLU/mg protein
- Fold (mean ± SEM), induced/basal Luciferase activity ([2]; Mediobasal Hypothalamus (MBH)): 1.8 ± 0.20 Fold
- induced Luciferase activity ([2]; Mediobasal Hypothalamus (MBH)): 0.368 RLU/mg protein
- Fold (mean ± SEM), induced/basal Luciferase activity ([2]; Muscle): 11.2 ± 5.7 Fold
- induced Luciferase activity ([2]; Muscle): 0.276 RLU/mg protein
- Fold (mean ± SEM), induced/basal Luciferase activity ([2]; Pituitary (Pit)): 2.3 ± 0.16 Fold
- induced Luciferase activity ([2]; Pituitary (Pit)): 0.791 RLU/mg protein
- Fold (mean ± SEM), induced/basal Luciferase activity ([2]; Skin): 4.0 ± 0.76 Fold
- induced Luciferase activity ([2]; Skin): 2.798 RLU/mg protein
- Fold (mean ± SEM), induced/basal Luciferase activity ([2]; Testicle): 0.8 ± 0.06 Fold
- induced Luciferase activity ([2]; Testicle): 4.09 RLU/mg protein
- Fold (mean ± SEM), induced/basal Luciferase activity ([2]; Thyroid): 1.5 ± 0.07 Fold
- induced Luciferase activity ([2]; Thyroid): 0.176 RLU/mg protein
- Fold (mean ± SEM), induced/basal Luciferase activity ([2]; iBAT): 64.6 ± 8.1 Fold
- induced Luciferase activity ([2]; iBAT): 1.820 RLU/mg protein
- induction of Luciferase expression in the BAT ([2]; line #4 homozygote males, 5 ug of T4/day/mouse for 3 days): striking response
- Fold (mean ± SEM), induced/basal Luciferase activity ([3]; Bone): 0.9 ± 0.56 Fold
- induced Luciferase activity ([3]; Bone): 0.011 RLU/mg protein
- Fold (mean ± SEM), induced/basal Luciferase activity ([3]; CER): 1.9 ± 0.28 Fold
- induced Luciferase activity ([3]; CER): 0.023 RLU/mg protein
- Fold (mean ± SEM), induced/basal Luciferase activity ([3]; CTX): 1.8 ± 0.21 Fold
- induced Luciferase activity ([3]; CTX): 0.065 RLU/mg protein
- Fold (mean ± SEM), induced/basal Luciferase activity ([3]; HC): 1.1 ± 0.32 Fold
- induced Luciferase activity ([3]; HC): 0.040 RLU/mg protein
- Fold (mean ± SEM), induced/basal Luciferase activity ([3]; HT): 2.7 ± 1.35 Fold
- induced Luciferase activity ([3]; HT): 0.144 RLU/mg protein
- Fold (mean ± SEM), induced/basal Luciferase activity ([3]; Heart): 1.0 ± 0.47 Fold
- induced Luciferase activity ([3]; Heart): 0.003 RLU/mg protein
- Fold (mean ± SEM), induced/basal Luciferase activity ([3]; Liver): 1.7 ± 0.19 Fold
- induced Luciferase activity ([3]; Liver): 0.004 RLU/mg protein
- Fold (mean ± SEM), induced/basal Luciferase activity ([3]; MBH): 1.7 ± 0.29 Fold
- induced Luciferase activity ([3]; MBH): 0.240 RLU/mg protein
- Fold (mean ± SEM), induced/basal Luciferase activity ([3]; Muscle): 0.7 ± 0.18 Fold
- induced Luciferase activity ([3]; Muscle): 0.003 RLU/mg protein
- Fold (mean ± SEM), induced/basal Luciferase activity ([3]; Pit): 8.8 ± 0.62 Fold
- induced Luciferase activity ([3]; Pit): 16.926 RLU/mg protein
- Fold (mean ± SEM), induced/basal Luciferase activity ([3]; iBAT): 7.2 ± 1.54 Fold
- induced Luciferase activity ([3]; iBAT): 0.038 RLU/mg protein
- response of Luciferase expression in the pituitary and hypothalamus ([3]; line #23 homozygote males, 5 ug of T4/day/mouse for 3 days): intense response
- Fold (mean ± SEM), induced/basal Luciferase activity [4, 6]: 1.8 ± 0.31 Fold
- induced Luciferase activity [4, 6]: 0.063 RLU/mg protein
- Fold (mean ± SEM), induced/basal Luciferase activity [4, 7]: 1.9 ± 1.18 Fold
- induced Luciferase activity [4, 7]: 2.586 RLU/mg protein
- Fold (mean ± SEM), induced/basal Luciferase activity [4, 8]: 2.1 ± 0.25 Fold
- induced Luciferase activity [4, 8]: 3.756 RLU/mg protein
- Fold (mean ± SEM), induced/basal Luciferase activity [4, 9]: 2.8 ± 0.35 Fold
- induced Luciferase activity [4, 9]: 1.589 RLU/mg protein
- Luciferase activity (basal and induced) ([4]; line #18, Liver (cell also covers Heart, iBAT, Bone, Muscle, MSG, Thyroid, Testicle, Intestine), T4 5 ug/mouse/day for 3 days i.p.): no expression
- Fold (mean ± SEM), induced/basal Luciferase activity [4, 10]: 2.2 ± 0.25 Fold
- induced Luciferase activity [4, 10]: 0.602 RLU/mg protein
- Fold (mean ± SEM), induced/basal Luciferase activity [4, 11]: 8.2 ± 0.36 Fold
- induced Luciferase activity [4, 11]: 0.540 RLU/mg protein
- response of Luciferase expression in the pituitary ([4]; line #18 homozygote males, 5 ug of T4/day/mouse for 3 days): intense response

Reference: US10694724B2, “Transgenic mouse for the assessment of thyroid hormone (TH) action” (MAGYAR TUDOMÁNYOS AKADÉMIA KÍSÉRLETI ORVOSTUDOMÁNYI KUTATÓ …, priority 2014, dated 2020)
